Measurements: patent US20250296914A1, “ANTIVIRAL COMPOUNDS AND COMPOSITIONS THEREFROM” (CONSEJO SUPERIOR DE INVESTIGACIONES CIENTÍFICAS, priority 2022, published 2025)
Read-outs that look alike come from different tables or passages of the source.

System: SARS-CoV-2 stock strain NL/2020
Experiment: Protective effect against virus-induced cytopathic effect (crystal violet staining of Vero-E6 monolayer)
Format: cell-based
Conditions: Vero-E6, SARS-CoV-2 MOI 0.001, 72 h; for minimal effective concentration: read-out: PC MIN (lowest protective concentration); for EC50: lowest fully protecting concentration averaged with next lower dilution, read-out: ESTIMATED EC50
[1] = Severe acute respiratory syndrome coronavirus 2, Vero C1008, 72 h, 50 to 0.78 μM tested
[2] = Severe acute respiratory syndrome coronavirus 2, Vero C1008, 72 h

Structure (SMILES) | minimal effective concentration [1] | EC50 [2] | PC MIN (lowest protective concentration) (50 to 0.78 μM tested) | EC50
CCc1cccc(-c2ccc(NC(C#N)[C@H](Cc3c[nH]c4ccccc34)NC(=O)OC(C)(C)C)c(C(=O)OC)c2)c1 (stereo partly drawn) [(Iaa), methyl 4-(((2S)-2-((tert-butoxycarbonyl)amino)-1-cyano-3-(1H-indol-3-yl)propyl)amino)-3′-ethyl-[1,1′-biphenyl]-3-carboxylate] | 3.12 µM | 2340 nM | – | –
COC(=O)c1cc(-c2cccc(N3CCCC3)c2)ccc1NC(C#N)[C@H](Cc1c[nH]c2ccccc12)NC(=O)OC(C)(C)C (stereo partly drawn) [(Iab), methyl 4-(((2S)-2-((tert-butoxycarbonyl)amino)-1-cyano-3-(1H-indol-3-yl)propyl)amino)-3′-(pyrrolidin-1-yl)-[1,1′-biphenyl]-3-carboxylate] | 3.12 µM | 2340 nM | – | –
COC(=O)c1cc(-c2cccc(N(C)C)c2)ccc1NC(C#N)[C@H](Cc1c[nH]c2ccccc12)NC(=O)OC(C)(C)C (stereo partly drawn) [(Iac), methyl 4-(((2S)-2-((tert-butoxycarbonyl)amino)-1-cyano-3-(1H-indol-3-yl)propyl)amino)-3′-(dimethylamino)-[1,1′-biphenyl]-3-carboxylate] | 3.12 µM | 2340 nM | – | –
COC(=O)c1cc(-c2cccc(OC(F)(F)F)c2)ccc1NC(C#N)[C@H](Cc1c[nH]c2ccccc12)NC(=O)OC(C)(C)C (stereo partly drawn) [(Iad), methyl 4-(((2S)-2-((tert-butoxycarbonyl)amino)-1-cyano-3-(1H-indol-3-yl)propyl)amino)-3′-(trifluoromethoxy)-[1,1′-biphenyl]-3-carboxylate] | 3.12 µM | 2340 nM | – | –
COC(=O)c1cc(-c2ccc(N3CCN(C(C)C)CC3)nc2)ccc1NC(C#N)[C@H](Cc1c[nH]c2ccccc12)NC(=O)OC(C)(C)C (stereo partly drawn) [(Iae), methyl 2-(((2S)-2-((tert-butoxycarbonyl)amino)-1-cyano-3-(1H-indol-3-yl)propyl)amino)-5-(6-(4-isopropylpiperazin-1-yl)pyridin-3-yl)benzoate] | 3.12 µM | 2340 nM | – | –
CCOc1ncc(-c2ccc(NC(C#N)[C@H](Cc3c[nH]c4ccccc34)NC(=O)OC(C)(C)C)c(C(=O)OC)c2)cn1 (stereo partly drawn) [(Iaf), methyl 2-(((2S)-2-((tert-butoxycarbonyl)amino)-1-cyano-3-(1H-indol-3-yl)propyl)amino)-5-(2-ethoxypyrimidin-5-yl)benzoate] | 3.12 µM | 2340 nM | – | –
CCCCc1ccc(-c2ccc(NC(C#N)[C@H](Cc3c[nH]c4ccccc34)NC(=O)OC(C)(C)C)c(C(=O)OC)c2)cc1 (stereo partly drawn) [(Iag), methyl 4-(((2S)-2-((tert-butoxycarbonyl)amino)-1-cyano-3-(1H-indol-3-yl)propyl)amino)-4′-butyl-[1,1′-biphenyl]-3-carboxylate] | – | – | 6.25 µM | 4680 nM
COC(=O)c1cc(-c2cccc(Cc3ccccc3)c2)ccc1NC(C#N)[C@H](Cc1c[nH]c2ccccc12)NC(=O)OC(C)(C)C (stereo partly drawn) [(Iah), methyl 3′-benzyl-4-(((2S)-2-((tert-butoxycarbonyl)amino)-1-cyano-3-(1H-indol-3-yl)propyl)-amino)-[1,1′-biphenyl]-3-carboxylate] | 6.25 µM | 4680 nM | – | –
CC(C)(C)OC(=O)N[C@@H](Cc1c[nH]c2ccccc12)C(C#N)Nc1ccccc1C(=O)NCc1ccccc1 (stereo partly drawn) [(Iai), 2-(((2S)-2-(tert-butoxycarbonylamino)-1-cyano-3-(1H-indol-3-yl)propyl)amino)-N-benzyl-benzamide] | 6.25 µM | 4690 nM | – | –
CC(C)(C)OC(=O)N[C@@H](Cc1c[nH]c2ccccc12)C(C#N)Nc1ccccc1Br (stereo partly drawn) [(Iaj), (3S)-2-((2-bromophenyl)amino)-4-(1H-indol-3-yl)-3-(tert-butoxycarbonylamino) butanenitrile] | 6.25 µM | 4690 nM | – | –
COC(=O)c1ccccc1NC(C#N)[C@@H](Cc1c[nH]c2ccccc12)NC(=O)OC(C)(C)C (stereo partly drawn) [(Iak), methyl 2-(((2R)-2-((tert-butoxycarbonyl)amino)-1-cyano-3-(1H-indol-3-yl)propyl)amino)-benzoate] | 12.5 µM | 9370 nM | – | –
